According to patent publication US7259159B2, “Guanidino derivatives as inhibitors of cell adhesion” (Sanofi-Aventis Deutschland GmbH, priority 2000, dated 2007):

target: T1, human vitronectin receptor αvβ3 (Homo sapiens, UniProt P05106+P06756); assay: Kistrin binding assay (αvβ3 ELISA test, K/VnR); conditions: not given
T1 construct: Human vitronectin receptor was obtained from the human placenta according to the method of Pytela et al; from tissue; host or cells: human placenta
From the text: The inhibition of the binding of kistrin to human vitronectin receptor (VnR) described below is a test method by which the antagonistic action of the compounds of the invention on the vitronectin receptor αvβ3 can be determined (αvβ3 ELISA Test; the test method is abbreviated as “K/VnR” in the listing of the test results).
Kistrin was purified according to the methods of Dennis et al., as described in Proc. Natl. Acad. Sci. USA 87 (1989) 2471 and Proteins: Structure, Function and Genetics 15 (1993)312.
Purification of Human vitronectin Receptor (αvβ3)
Human vitronectin receptor was obtained from the human placenta according to the method of Pytela et al., Methods Enzymol. 144 (1987) 475. Human vitronectin receptor αvβ3 can also be obtained from some cell lines (for example from 293 cells, a human embryonic kidney cell line) which are co-transfected with DNA sequences for both subunits αv and β3 of the vitronectin receptor. The subunits are extracted with octyl glycoside and then chromatographed through concanavalin A, heparin-Sepharose and S-300.
Murine monoclonal antibodies which are specific for the β3 subunits of the vitronectin receptor, were prepared according to the method of Newman et al., Blood, 1985, 227, or by a similar process. The rabbit Fab 2 anti-mouse Fc conjugate to horseradish peroxidase (anti-mouse Fc HRP) was obtained from Pel Freeze (Catalog No. 715 305-1).
The ability of substances to inhibit the binding of kistrin to the vitronectin receptor can be determined using an ELISA test. For this purpose, Nunc 96-well microtiter plates were coated with a solution of kistrin (0.002 mg/ml) according to the method of Dennis et al., as described in Proteins: Structure, Function and Genetics 15 (1993) 312. The plates were then washed twice with PBS/0.05% Tween-20 and blocked by incubating (60 min) with bovine serum albumin (BSA, 0.5%, RIA grade or better) in buffer solution (Tris-HCl (50 mM), NaCl (100 mM), MgCl2 (1 mM), CaCl2 (1 mM), MnCl2 (1 mM), pH 7). Solutions of known inhibitors and of the test substances were prepared in concentrations from 2×10^−12 to 2×10^−6 mol/l in assay buffer (BSA (0.5%, RIA grade or better); Tris-HCl (50 mM), NaCl (100 mM), MgCl2 (1 mM), CaCl2 (1 mM), MnCl2 (1 mM), pH 7). The blocked plates were emptied, and in each case 0.025 ml of this solution which contains a defined concentration (2×10^−12 to 2×10^−6 mol/l) either of a known inhibitor or of a test substance, were added to each well. 0.025 ml of a solution of the vitronectin receptor in assay buffer (0.03 mg/ml) was pipetted into each well of the plate and the plate was incubated at room temperature for 60-180 min on a shaker. In the meantime, a solution (6 ml/plate) of a murine monoclonal antibody specific for the […] of the vitronectin receptor was prepared in assay buffer (0.0015 mg/ml). A second rabbit antibody (0.001 ml of stock solution/6 ml of the murine monoclonal anti-β3 antibody solution) which is an anti-mouse Fc HRP antibody conjugate was added to this solution, and this mixture of murine anti-β3 antibody and rabbit anti-mouse Fc HRP antibody conjugate was incubated during the time of the receptor-inhibitor incubation. The test plates were washed four times with PBS solution which contains 0.05% Tween-20, and in each case 0.05 ml/well of the antibody mixture was pipefted into each well of the plate and incubated for 60-180 min. The plate was washed four times with PBS/0.05% Tween-20 and then developed with 0.05 ml/well of a PBS solution which contained 0.67 mg/ml of ophenylenediamine and 0.012% of H2O2. Alternatively to this, o-phenylenediamine can be employed in a buffer (pH 5) which contains Na3PO4 and citric acid. The color development was stopped using 1 N H2SO4 (0.05 ml/well). The absorption for each well was measured at 492-405 nm and the data are evaluated by standard methods.

T1 sequence (P06756 31-889 limits assumed): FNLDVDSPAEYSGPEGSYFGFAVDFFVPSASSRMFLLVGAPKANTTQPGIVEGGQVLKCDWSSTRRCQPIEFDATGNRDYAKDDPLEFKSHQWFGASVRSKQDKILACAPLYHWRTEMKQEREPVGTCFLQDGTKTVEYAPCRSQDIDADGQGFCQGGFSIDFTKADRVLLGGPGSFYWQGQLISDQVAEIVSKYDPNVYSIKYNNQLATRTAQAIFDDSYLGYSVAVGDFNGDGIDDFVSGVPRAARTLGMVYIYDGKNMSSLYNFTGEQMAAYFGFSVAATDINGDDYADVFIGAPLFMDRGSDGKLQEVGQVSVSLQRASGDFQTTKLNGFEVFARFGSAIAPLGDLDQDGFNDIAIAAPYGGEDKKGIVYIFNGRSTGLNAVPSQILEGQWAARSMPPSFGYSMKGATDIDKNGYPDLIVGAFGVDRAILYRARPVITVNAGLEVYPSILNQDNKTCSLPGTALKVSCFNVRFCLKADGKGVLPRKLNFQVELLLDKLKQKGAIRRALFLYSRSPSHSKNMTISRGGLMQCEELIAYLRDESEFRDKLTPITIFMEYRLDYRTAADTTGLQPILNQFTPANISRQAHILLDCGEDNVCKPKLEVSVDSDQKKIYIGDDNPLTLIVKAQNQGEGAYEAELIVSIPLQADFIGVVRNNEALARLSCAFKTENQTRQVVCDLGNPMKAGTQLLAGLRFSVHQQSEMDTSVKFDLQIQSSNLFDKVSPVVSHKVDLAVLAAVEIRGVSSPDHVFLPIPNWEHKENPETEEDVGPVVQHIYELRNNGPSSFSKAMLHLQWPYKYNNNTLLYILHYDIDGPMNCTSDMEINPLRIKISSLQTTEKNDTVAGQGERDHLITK
T1 sequence (P06756 891-1048 partner limits assumed): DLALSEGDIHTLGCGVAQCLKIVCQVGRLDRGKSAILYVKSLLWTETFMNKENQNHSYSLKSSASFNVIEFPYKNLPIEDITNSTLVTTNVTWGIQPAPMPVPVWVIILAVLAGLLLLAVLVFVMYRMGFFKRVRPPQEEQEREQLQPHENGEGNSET
T1 sequence (P05106 27-788): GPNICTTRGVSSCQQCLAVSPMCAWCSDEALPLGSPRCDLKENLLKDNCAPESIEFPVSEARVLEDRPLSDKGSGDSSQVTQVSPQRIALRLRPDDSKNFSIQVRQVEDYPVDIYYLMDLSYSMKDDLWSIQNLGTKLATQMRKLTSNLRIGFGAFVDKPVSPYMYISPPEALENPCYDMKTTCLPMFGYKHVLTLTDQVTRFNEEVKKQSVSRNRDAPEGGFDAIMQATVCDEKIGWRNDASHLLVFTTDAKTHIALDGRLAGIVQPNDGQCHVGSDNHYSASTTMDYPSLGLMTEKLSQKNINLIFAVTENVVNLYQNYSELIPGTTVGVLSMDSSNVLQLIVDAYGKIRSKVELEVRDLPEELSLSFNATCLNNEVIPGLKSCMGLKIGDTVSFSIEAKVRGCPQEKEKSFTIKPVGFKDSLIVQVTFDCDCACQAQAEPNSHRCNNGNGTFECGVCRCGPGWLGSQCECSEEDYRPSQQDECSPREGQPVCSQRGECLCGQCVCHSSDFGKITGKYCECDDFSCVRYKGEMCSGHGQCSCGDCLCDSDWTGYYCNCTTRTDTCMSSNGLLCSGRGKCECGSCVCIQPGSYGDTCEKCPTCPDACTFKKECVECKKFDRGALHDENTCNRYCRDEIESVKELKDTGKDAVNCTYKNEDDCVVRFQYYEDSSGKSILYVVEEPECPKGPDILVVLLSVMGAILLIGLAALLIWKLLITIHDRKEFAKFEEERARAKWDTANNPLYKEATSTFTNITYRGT

Compound | IC50
Cc1nc(NC[C@H](NS(=O)(=O)c2cccc3ccccc23)C(=O)O)c2ccn(CCCC(=O)NC3=NCCCN3)c2n1 [Example 3, (2S)-3-{2-Methyl-7-[3-(1,4,5,6-tetrahydro-pyrimidin-2-ylcarbamoyl)-propyl]-7H-pyrrolo[2,3-d]pyrimidin-4-ylamino}-2-(naphthalene-1-sulfonylamino)-propionic acid] | 2.2 nM

same assay, conditions: inhibition of the binding of kistrin to human vitronectin receptor (VnR), ELISA; read-out: K/VnR IC50

Compound | IC50
O=C(CCCn1cnc2c(NC[C@H](NC(=O)OCc3ccccc3)C(=O)O)ncnc21)NC1=NCCCN1 [Example 1, (2S)-2-Benzyloxycarbonylamino-3-{9-[3-(1,4,5,6-tetrahydro-pyrimidin-2-ylcarbamoyl)-propyl]-9H-purin-6-ylamino}-propionic acid] | 22 nM
Cc1nc(SC[C@H](NS(=O)(=O)c2ccc(Br)cc2)C(=O)O)c2ccn(CCCC(=O)NC3=NCCCN3)c2n1 [Example 6, (2R)-3-{2-Methyl-7-[3-(1,4,5,6-tetrahydro-pyrimidin-2-ylcarbamoyl)-propyl]-7H-pyrrolo[2,3-d]pyrimidin-4-ylsulfanyl}-2-(4-bromobenzenesulfonylamino)-propionic acid] | 13.5 nM
Cc1nc(SC[C@H](NS(=O)(=O)c2cccc3ccccc23)C(=O)O)c2ccn(CCCC(=O)NC3=NCCCN3)c2n1 [Example 7, (2R)-3-{2-Methyl-7-[3-(1,4,5,6-tetrahydro-pyrimidin-2-ylcarbamoyl)-propyl]-7H-pyrrolo[2,3-d]pyrimidin-4-ylsulfanyl}-2-(naphthalene-1-sulfonylamino)-propionic acid] | 5 nM
Cc1nc(NC[C@H](NS(=O)(=O)c2ccc(Br)cc2)C(=O)O)c2ccn(CCCC(=O)NC3=NCCCN3)c2n1 [Example 5, (2S)-3-{2-Methyl-7-[3-(1,4,5,6-tetrahydro-pyrimidin-2-ylcarbamoyl)-propyl]-7H-pyrrolo[2,3-d]pyrimidin-4-ylamino}-2-(4-bromobenzenesulfonylamino)-propionic acid] | 2.6 nM
Cc1nc(NC[C@H](NS(=O)(=O)c2ccccc2)C(=O)O)c2ccn(CCCC(=O)NC3=NCCCN3)c2n1 [Example 4, (2S)-3-{2-Methyl-7-[3-(1,4,5,6-tetrahydro-pyrimidin-2-ylcarbamoyl)-propyl]-7H-pyrrolo[2,3-d]pyrimidin-4-ylamino}-2-(benzenesulfonylamino)-propionic acid] | 3 nM
Cc1nc(SC[C@H](NS(=O)(=O)c2ccccc2)C(=O)O)c2ccn(CCCC(=O)NC3=NCCCN3)c2n1 [Example 8, (2R)-3-{2-Methyl-7-[3-(1,4,5,6-tetrahydro-pyrimidin-2-ylcarbamoyl)-propyl]-7H-pyrrolo[2,3-d]pyrimidin-4-ylsulfanyl}-2-(benzenesulfonylamino)-propionic acid] | 10 nM
Cc1nc(NC[C@H](NC(=O)OCc2ccccc2)C(=O)O)c2ccn(CCCC(=O)NC3=NCCCN3)c2n1 [Example 2, (2S)-2-Benzyloxycarbonylamino-3-{2-methyl-7-[3-(1,4,5,6-tetrahydro-pyrimidin-2-ylcarbamoyl)-propyl]-7H-pyrrolo[2,3-d]pyrimidin-4-ylamino}-propionic acid] | 3.5 nM
